The text below walks through data of US20130338152A1, “FLUOROPHENYL BICYCLIC HETEROARYL COMPOUNDS” (IRM LLC, priority 2011, published 2013).

Where two headings read alike, the source gives them in different places.

The target of one assay is LCK (Homo sapiens, UniProt P06239). Briefly: Enzymatic kinase assay. Format: biochemical. The protocol: (§1) Two methods were used to analyze phosphorylated peptides and proteins produced by the listed tyrosine and serine/threonine-specific protein kinases: either using a filter-binding assay (FB), or using a flashplate assay (FP). The activities of protein kinases were assayed in the presence or absence of inhibitors, by measuring the incorporation of ^33P from [γ^33P]ATP into appropriate substrates.
(§2) 96-well polypropylene microplates were used to assay the activity in the FB mode. To determine the inhibitory activity of compounds 10 μL of compound dilutions were pipetted into 96-well plates followed by the addition of 10 μL of assay mix and 10 μL of individual enzymes. With the addition of the enzymes the reactions were initiated and continued at RT. […] The final concentration of DMSO in the enzyme assays was 1%.
(§3) Flashplates are available as 96-well standard (STFPs) or as streptavidin-(SAFPs) or nickel coated FPs (NiFPs) from Perkin Elmer. STFPs are 96-well polystyrene microplates in which the interior of each well is permanently coated with a thin layer of polystyrene-based scintillant. Streptavidin flashplates (SAFP) are 96 or 384-well STFPs coated with streptavidin. SAFPs are suitable for a wide variety of assay applications which utilize biotinylated capture molecules. NiFP or nickel chelate flashplates are 96- or 384-well STFPs coated with nickel chelate. NiFPs are designed for in-plate, radiometric assays which utilize 4- or 6-histidine tagged proteins and peptides.
(§4) All kinase assays were performed in STFPs for 60 mins at RT and stopped with 50 μL of 0.5% H3PO4 except PKA which were carried out in polypropylene 96- and 384-well plates, respectively. […] All wells were then washed three times with 200 μL of 0.5% H3PO4 and the plates were dried at room temperature. The plates were sealed and counted in a microplate scintillation counter (TopCount NXT, TopCount NXT HTS). The final concentration of DMSO in the enzyme assays was 1%.

A further assay deals with T1, Aurora A (Homo sapiens, UniProt O14965).
T1 sequence (O14965 1-403): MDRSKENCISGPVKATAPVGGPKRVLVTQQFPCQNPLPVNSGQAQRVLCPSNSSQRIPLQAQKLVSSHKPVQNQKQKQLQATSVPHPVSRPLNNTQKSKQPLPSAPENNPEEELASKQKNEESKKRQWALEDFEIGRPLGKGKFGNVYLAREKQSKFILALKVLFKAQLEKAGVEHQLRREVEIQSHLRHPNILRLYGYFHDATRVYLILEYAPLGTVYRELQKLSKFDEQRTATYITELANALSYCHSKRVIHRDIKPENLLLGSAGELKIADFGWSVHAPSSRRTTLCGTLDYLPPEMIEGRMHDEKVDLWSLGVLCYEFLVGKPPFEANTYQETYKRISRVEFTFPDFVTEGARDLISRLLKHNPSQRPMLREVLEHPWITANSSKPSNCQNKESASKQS
Briefly: Enzymatic kinase assay. Type of assay: biochemical. The protocol: as §1, §2, §3, §4

A further assay deals with RET (Homo sapiens, UniProt P07949). Briefly: Enzymatic kinase assay. Format: biochemical. As for the experimental part: as §1, §2, §3, §4
Another assay has as its target TYK2 (Homo sapiens, UniProt P29597). Put plainly: Enzymatic kinase assay. Format: biochemical. As for the experimental part:
as §1, §2, §3, §4

The target of a further assay is MK2 (Homo sapiens, UniProt P49137). Briefly: Enzymatic kinase assay. Format: biochemical. As for the experimental part:
as §1, §2, §3, §4

For a further assay, the target named is KDR (Homo sapiens, UniProt P35968). Put plainly: Enzymatic kinase assay. Type of assay: biochemical. As for the experimental part: as §1, §2, §3, §4
The target in the next assay is EphA4 (Homo sapiens, UniProt P54764). Put plainly: Enzymatic kinase assay. Type of assay: biochemical. The protocol: as §1, §2, §3, §4
A further assay deals with cKIT (Homo sapiens, UniProt P10721). Put plainly: Enzymatic kinase assay. Format: biochemical. The protocol:
as §1, §2, §3, §4

For the next assay, the target named is HER2 (Homo sapiens, UniProt P04626). Briefly: Enzymatic kinase assay. Type of assay: biochemical. As for the experimental part: as §1, §2, §3, §4
The target of the next assay is GSK3beta (Homo sapiens, UniProt P49841). Briefly: Enzymatic kinase assay. Type of assay: biochemical. The protocol:
as §1, §2, §3, §4

The next assay deals with CDK2A (Homo sapiens, UniProt P24941). Put plainly: Enzymatic kinase assay. Format: biochemical. The protocol: as §1, §2, §3, §4
A further assay addresses cABLT315 (Homo sapiens, UniProt P00519, T315I). Briefly: Enzymatic kinase assay. Format: biochemical. The protocol:
as §1, §2, §3, §4

In another assay the target is P38a (Homo sapiens, UniProt Q16539). Put plainly: Enzymatic kinase assay. Format: biochemical. As for the experimental part:
as §1, §2, §3, §4

In another assay the target is COT1 (Homo sapiens, UniProt P41279). Briefly: Enzymatic kinase assay. Type of assay: biochemical. The protocol:
as §1, §2, §3, §4

Another assay concerns the target ERK2 (Homo sapiens, UniProt P28482). Put plainly: Enzymatic kinase assay. Type of assay: biochemical. The protocol:
as §1, §2, §3, §4

Another assay has as its target FGFR-4 (Homo sapiens, UniProt P22455). Briefly: Enzymatic kinase assay. Format: biochemical. As for the experimental part: as §1, §2, §3, §4
A further assay addresses cMET (Homo sapiens, UniProt P08581). Put plainly: Enzymatic kinase assay. Type of assay: biochemical. The protocol: as §1, §2, §3, §4
Another assay addresses JAK2 (Homo sapiens, UniProt O60674). Put plainly: Enzymatic kinase assay. Type of assay: biochemical. As for the experimental part: as §1, §2, §3, §4
The target of another assay is PDGFRa (Homo sapiens, UniProt P16234). Briefly: Enzymatic kinase assay. Format: biochemical. As for the experimental part: as §1, §2, §3, §4
For assay [1], the target named is T2, IGF1R (Homo sapiens, UniProt P08069). Briefly: Cellular IGF-1R assay: inhibition of IGF1R phosphorylation in Hek293 cells, capture ELISA (MSD). Format: cell-based. Also on record: expressed in transfected cells; host or cells: Hek293 (Hek293-IGF1R). Conditions: IGF-triggered receptor phosphorylation.
For a further assay, the target named is hERG channels (Homo sapiens, UniProt Q12809). Briefly: biochemical.
The target of another assay is InsR (Homo sapiens, UniProt P06213). Put plainly: Enzymatic kinase assay (filter-binding/flashplate). Type of assay: biochemical. As for the experimental part:
as §1, §2, §3, §4

Assay [2] concerns the target T2, IGF1R. Put plainly: Enzymatic kinase assay (filter-binding/flashplate). Format: biochemical. As for the experimental part: as §1, §2, §3, §4
The next assay has as its target EphB4 (Homo sapiens, UniProt P54760). Briefly: Kinase assay of known compound and phenol metabolite X. Particulars: metabolite comparison table. Format: biochemical.
A further assay addresses c-src (Homo sapiens, UniProt P12931). Described as above. Format: biochemical. Particulars: metabolite comparison table.
A further assay concerns the target C-Abl (Homo sapiens, UniProt P00519). The assay is described as above. Format: biochemical. Particulars: metabolite comparison table.
Where [3] appears, read: enzymatic, read-out: RET IC50 values (converted).
The mark [4] stands for this setting: enzymatic, read-out: InsR IC50 values.

Chain of TYK2 (P29597 whole entry, species assumed): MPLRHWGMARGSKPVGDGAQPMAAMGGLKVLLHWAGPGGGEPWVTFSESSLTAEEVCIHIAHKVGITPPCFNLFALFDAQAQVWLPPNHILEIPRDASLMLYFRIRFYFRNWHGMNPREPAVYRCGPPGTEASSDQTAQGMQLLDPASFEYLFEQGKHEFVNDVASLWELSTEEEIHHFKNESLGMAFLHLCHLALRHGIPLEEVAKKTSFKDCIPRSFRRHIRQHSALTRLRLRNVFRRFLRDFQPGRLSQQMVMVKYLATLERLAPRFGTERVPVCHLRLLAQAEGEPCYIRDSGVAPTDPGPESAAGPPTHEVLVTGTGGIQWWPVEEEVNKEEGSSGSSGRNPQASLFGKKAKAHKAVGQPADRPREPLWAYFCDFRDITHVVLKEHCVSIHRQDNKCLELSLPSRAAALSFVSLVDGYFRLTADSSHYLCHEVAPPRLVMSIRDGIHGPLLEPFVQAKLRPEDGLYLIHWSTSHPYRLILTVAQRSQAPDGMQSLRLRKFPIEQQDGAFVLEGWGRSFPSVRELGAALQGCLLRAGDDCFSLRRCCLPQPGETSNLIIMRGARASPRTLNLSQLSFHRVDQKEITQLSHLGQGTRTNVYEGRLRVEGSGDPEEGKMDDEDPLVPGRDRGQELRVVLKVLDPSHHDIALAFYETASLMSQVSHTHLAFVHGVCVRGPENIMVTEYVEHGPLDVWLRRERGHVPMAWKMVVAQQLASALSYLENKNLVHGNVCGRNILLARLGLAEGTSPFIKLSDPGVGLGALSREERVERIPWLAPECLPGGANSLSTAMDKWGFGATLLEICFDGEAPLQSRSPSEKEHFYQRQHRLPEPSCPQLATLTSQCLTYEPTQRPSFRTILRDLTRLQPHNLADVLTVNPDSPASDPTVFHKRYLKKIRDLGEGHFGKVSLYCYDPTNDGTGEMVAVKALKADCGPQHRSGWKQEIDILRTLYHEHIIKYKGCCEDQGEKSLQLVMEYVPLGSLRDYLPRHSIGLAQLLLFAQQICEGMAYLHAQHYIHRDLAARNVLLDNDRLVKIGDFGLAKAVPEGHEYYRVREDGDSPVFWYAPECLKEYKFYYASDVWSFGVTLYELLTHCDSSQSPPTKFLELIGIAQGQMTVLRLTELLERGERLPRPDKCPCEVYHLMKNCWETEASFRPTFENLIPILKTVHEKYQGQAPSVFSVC
Chain of LCK (P06239 whole entry, species assumed): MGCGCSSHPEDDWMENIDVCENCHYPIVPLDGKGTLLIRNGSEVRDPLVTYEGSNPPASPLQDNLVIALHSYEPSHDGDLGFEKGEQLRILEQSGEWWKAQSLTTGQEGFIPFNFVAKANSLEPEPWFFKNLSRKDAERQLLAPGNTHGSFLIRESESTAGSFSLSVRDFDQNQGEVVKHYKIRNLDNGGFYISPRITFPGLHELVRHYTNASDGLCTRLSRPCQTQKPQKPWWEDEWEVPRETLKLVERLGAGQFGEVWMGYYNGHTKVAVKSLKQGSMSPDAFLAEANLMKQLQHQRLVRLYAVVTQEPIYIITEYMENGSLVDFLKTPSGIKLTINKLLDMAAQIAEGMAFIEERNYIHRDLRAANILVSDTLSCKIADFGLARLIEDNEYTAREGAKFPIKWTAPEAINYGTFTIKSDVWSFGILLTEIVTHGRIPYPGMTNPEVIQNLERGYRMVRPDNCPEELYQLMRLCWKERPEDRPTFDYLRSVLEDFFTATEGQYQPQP
Chain of JAK2 (O60674 whole entry, species assumed): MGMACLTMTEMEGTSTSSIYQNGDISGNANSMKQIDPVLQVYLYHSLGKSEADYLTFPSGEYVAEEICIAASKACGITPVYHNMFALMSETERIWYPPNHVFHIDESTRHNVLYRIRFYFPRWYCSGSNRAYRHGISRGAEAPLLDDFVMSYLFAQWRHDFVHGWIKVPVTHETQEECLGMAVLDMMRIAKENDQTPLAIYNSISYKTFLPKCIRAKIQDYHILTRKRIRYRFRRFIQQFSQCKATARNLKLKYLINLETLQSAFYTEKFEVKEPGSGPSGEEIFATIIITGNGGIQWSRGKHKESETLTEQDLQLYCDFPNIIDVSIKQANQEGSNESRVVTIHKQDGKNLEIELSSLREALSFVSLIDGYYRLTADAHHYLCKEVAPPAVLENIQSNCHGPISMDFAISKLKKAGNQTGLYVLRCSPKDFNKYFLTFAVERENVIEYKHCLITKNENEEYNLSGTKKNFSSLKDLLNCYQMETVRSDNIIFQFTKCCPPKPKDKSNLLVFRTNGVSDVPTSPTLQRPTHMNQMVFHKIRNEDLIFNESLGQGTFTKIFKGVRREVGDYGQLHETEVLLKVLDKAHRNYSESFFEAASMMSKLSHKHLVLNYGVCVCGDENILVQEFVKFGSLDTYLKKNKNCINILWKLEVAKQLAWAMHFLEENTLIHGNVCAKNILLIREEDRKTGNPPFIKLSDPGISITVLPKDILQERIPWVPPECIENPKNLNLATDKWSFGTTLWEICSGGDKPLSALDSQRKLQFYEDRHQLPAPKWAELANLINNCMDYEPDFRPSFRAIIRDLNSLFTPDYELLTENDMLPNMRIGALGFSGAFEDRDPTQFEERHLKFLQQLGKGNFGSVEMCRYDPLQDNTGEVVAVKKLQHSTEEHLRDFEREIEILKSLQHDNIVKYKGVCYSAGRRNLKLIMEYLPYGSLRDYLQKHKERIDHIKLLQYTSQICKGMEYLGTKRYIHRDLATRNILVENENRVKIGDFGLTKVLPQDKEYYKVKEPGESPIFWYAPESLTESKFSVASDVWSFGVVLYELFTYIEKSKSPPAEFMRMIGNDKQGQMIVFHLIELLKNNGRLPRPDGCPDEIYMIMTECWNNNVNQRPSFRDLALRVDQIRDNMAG
Chain of FGFR-4 (P22455 22-802, species assumed): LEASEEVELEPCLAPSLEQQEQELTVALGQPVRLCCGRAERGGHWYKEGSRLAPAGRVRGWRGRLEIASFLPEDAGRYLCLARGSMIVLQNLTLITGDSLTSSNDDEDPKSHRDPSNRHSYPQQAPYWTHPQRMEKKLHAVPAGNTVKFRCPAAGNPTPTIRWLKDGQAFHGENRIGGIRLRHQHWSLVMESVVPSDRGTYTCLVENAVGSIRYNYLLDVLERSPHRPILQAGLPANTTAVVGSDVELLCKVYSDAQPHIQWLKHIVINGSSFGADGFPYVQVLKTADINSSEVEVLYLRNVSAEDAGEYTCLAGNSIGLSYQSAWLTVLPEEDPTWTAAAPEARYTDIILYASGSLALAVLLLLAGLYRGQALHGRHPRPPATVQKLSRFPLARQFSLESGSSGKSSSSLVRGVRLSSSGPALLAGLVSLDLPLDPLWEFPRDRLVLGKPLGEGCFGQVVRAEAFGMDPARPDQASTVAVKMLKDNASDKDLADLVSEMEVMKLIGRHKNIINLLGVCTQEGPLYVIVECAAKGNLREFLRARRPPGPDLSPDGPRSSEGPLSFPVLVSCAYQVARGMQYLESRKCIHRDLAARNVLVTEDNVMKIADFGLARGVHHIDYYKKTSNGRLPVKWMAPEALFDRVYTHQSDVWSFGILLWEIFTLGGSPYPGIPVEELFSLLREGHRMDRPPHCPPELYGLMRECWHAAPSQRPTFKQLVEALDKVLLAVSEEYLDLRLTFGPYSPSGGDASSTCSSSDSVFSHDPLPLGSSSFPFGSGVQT
Chain of EphA4 (P54764 20-986, species assumed): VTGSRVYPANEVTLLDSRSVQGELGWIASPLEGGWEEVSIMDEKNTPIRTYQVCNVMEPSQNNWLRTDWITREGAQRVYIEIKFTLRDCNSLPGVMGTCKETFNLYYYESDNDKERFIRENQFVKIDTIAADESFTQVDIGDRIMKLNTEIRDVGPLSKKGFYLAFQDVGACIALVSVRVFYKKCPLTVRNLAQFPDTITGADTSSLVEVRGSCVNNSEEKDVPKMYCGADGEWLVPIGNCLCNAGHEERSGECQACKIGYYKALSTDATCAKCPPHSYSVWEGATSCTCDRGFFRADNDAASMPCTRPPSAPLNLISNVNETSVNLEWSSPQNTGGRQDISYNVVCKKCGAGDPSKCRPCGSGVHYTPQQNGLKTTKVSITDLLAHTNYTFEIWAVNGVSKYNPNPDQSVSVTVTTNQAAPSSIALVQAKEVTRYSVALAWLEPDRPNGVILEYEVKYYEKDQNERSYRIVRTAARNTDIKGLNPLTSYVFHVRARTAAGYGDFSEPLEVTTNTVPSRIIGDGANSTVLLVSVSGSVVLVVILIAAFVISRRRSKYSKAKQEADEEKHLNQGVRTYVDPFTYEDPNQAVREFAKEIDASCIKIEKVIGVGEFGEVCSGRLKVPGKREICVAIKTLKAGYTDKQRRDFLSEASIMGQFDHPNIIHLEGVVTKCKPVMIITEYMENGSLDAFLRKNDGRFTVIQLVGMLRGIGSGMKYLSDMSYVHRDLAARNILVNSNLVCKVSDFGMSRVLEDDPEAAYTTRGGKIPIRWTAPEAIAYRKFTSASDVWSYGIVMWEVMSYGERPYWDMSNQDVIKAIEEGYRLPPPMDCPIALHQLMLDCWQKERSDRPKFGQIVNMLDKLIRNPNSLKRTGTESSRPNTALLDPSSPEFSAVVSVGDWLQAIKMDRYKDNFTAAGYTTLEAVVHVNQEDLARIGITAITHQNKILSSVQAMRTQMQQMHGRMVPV
Chain of P38a (Q16539 whole entry): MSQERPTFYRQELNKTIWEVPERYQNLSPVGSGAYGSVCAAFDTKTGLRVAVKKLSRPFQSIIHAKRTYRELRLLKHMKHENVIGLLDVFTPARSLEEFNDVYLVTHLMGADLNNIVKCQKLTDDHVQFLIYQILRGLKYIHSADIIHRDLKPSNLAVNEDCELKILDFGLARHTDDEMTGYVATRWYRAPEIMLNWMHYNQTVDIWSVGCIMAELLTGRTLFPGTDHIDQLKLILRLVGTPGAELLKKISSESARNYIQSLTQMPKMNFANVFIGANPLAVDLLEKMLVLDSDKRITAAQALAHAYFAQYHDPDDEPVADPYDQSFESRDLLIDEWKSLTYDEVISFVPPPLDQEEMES

The IC50 is the point on the concentration scale where inhibition reaches its midpoint. For `Nc1ncnc2c1c(-c1cccc(OC[C@@H]3CCCO3)c1F)cn2C1CC2(CNC(=O)O2)C1` (stereo partly drawn) [Example 4, 2-(4-Amino-5-{2-fluoro-3-[(S)-1-(tetrahydro-furan-2-yl)methoxy]-phenyl}-pyrrolo[2,3-d]pyrimidin-7-yl)-5-oxa-7-aza-spiro[3.4]octan-6-one], the IC50 is more than 10 µM at LCK; more than 10 µM at Aurora A; more than 10 µM at RET (setting [3]); more than 10 µM against TYK2; more than 10 µM at MK2; 4.5 µM against KDR. For the same compound, the IC50 on EphA4, on cKIT, at HER2, against GSK3beta, at CDK2A and on cABLT315 was more than 10 µM each time. The IC50 on P38a, at COT1, on ERK2, at FGFR-4, against cMET and on JAK2 was more than 10 µM each time. For the same compound, the IC50 against PDGFRa was more than 10 µM; on IGF1R [1] it was 0.017 µM; against hERG channels, 8.7 µM; on InsR (setting [4]), 0.25 µM; on IGF1R [2], 0.013 µM.
With `Nc1ncnc2c1c(-c1cccc(OC[C@@H]3CCCO3)c1F)cn2[C@H]1C[C@@H](CN2CC[S+]([O-])CC2)C1` [Example 6, 5-{2-Fluoro-3-[(S)-1-(tetrahydro-furan-2-yl)methoxy]-phenyl}-7-[cis-3-(1-oxo-thiomorpholin-4-ylmethyl)-cyclobutyl]-7H-pyrrolo[2,3-d]pyrimidin-4-ylamine], the IC50 against LCK is 8.6 µM; at Aurora A, more than 10 µM; at RET (setting [3]), 3.4 µM; at TYK2 it was more than 10 µM; against MK2, more than 10 µM; at KDR, 5.7 µM. The IC50 was more than 10 µM at EphA4; 0.77 µM on cKIT; more than 10 µM against HER2; more than 10 µM against GSK3beta; more than 10 µM against CDK2A; more than 10 µM against cABLT315. The IC50 against P38a, against COT1, against ERK2, at FGFR-4, against cMET and against JAK2 was more than 10 µM throughout. In addition, the IC50 at PDGFRa is 8.3 µM; on IGF1R [1] it was 0.01 µM; on hERG channels, more than 30 µM; on InsR (setting [4]) it was 0.039 µM; at IGF1R [2] it was 0.0038 µM.
With `[2H]C1([2H])C([2H])([2H])C2(COc3cccc(-c4cn([C@H]5C[C@@H](N6CC[S+]([O-])CC6)C5)c5ncnc(N)c45)c3F)OC1([2H])C([2H])([2H])C2([2H])[2H]` [Example 18, d9-5-[2-Fluoro-3-(7-oxa-bicyclo[2.2.1]hept-1-ylmethoxy)-phenyl]-7-[cis-3-(1-oxo-thiomorpholin-4-yl)-cyclobutyl]-7H-pyrrolo[2,3-d]pyrimidin-4-ylamine], the IC50 on LCK, against Aurora A, at RET (setting [3]), at TYK2, on MK2 and against KDR was more than 10 µM each time. For the same compound, the IC50 against EphA4, against cKIT, on HER2, on GSK3beta, against CDK2A and on cABLT315 was more than 10 µM throughout. The IC50 against P38a, at COT1, at ERK2, against FGFR-4, against cMET and on JAK2 was more than 10 µM throughout. Moreover, the IC50 against PDGFRa is more than 10 µM; at IGF1R [1], 0.004 µM; against hERG channels, more than 30 µM; on InsR (setting [4]), 0.043 µM; on IGF1R [2] it was 0.015 µM.
As for `Nc1ncnc2c1c(-c1cccc(OCc3ccccc3)c1)cn2[C@H]1C[C@@H](CN2CCC2)C1` [WO02/092599, ex. 102], the IC50 on EphB4 is more than 10 µM; on RET (metabolite comparison table, read-out: RET IC50), 4.4 µM; on InsR (metabolite comparison table, read-out: InsR IC50), 0.23 µM; at c-src, more than 10 µM; on C-Abl, more than 10 µM.
